Like-named read-outs stand apart in the source and are kept apart here.
Legend:
[1] = Storage stability of composition containing 2.02% of benzoyl peroxide and 0.099% of tazarotene (Example 17); format: physicochemical; settings: Example 17 composition, initial […]
Description: (§1) The results are as follows:

[2] = Example 12 composition, initial […]
[3] = Storage stability of composition containing 2.02% of benzoyl peroxide, […] of tazarotene, and […] of clindamycin (Example 9); format: physicochemical; settings: Example 9 composition, initial […]
[4] = Storage stability of composition containing 2.15% of benzoyl peroxide, […] of tazarotene, and […] of clindamycin (Example 8); format: physicochemical; settings: Example 8 composition, initial […], 6 months
[5] = Example 13 composition, initial […]
[6] = Storage stability of composition containing 5.18% of benzoyl peroxide and 0.099% of tazarotene (Example 18); format: physicochemical; settings: Example 18 composition, initial […]
Description: as §1

[7] = Storage stability of composition containing […] of tazarotene and […] of clindamycin (Example 16); format: physicochemical; settings: Example 16 composition, initial […], 6 months
[8] = Example 15 composition, initial 0.109%
[9] = Example 11 composition, initial […]
[10] = Example 7 composition, initial […]
[11] = Storage stability of composition containing 0.209% of tazarotene and 2.13% of clindamycin (Example 14); format: physicochemical; settings: Example 14 composition, initial 0.209%
[12] = Example 6 composition, initial […]

Tazarotene (as % w/w) ([1]; 6 months, 6° C.): 0.108 % w/w
Tazarotene (as % w/w) ([1]; 6 months, 25° C.): 0.081 % w/w
Tazarotene (as % w/w) ([1]; 6 months, 30° C.): 0.070 % w/w
Tazarotene (as % w/w) ([1]; 6 months, 40° C.): 0.009 % w/w
Tazarotene (as % w/w) ([1]; 90 days, 6° C.): 0.106 % w/w
Tazarotene (as % w/w) ([1]; 90 days, 25° C.): 0.088 % w/w
Tazarotene (as % w/w) ([1]; 90 days, 30° C.): 0.085 % w/w
Tazarotene (as % w/w) ([1]; 90 days, 40° C.): 0.044 % w/w
Tazarotene (as % w/w) ([2]; 2 weeks, 6° C.): 0.099 % w/w
Tazarotene (as % w/w) ([2]; 2 weeks, 25° C.): 0.090 % w/w
Tazarotene (as % w/w) ([2]; 2 weeks, 30° C.): 0.090 % w/w
Tazarotene (as % w/w) ([2]; 2 weeks, 40° C.): 0.085 % w/w
Tazarotene (as % w/w) ([2]; 6 months, 6° C.): 0.096 % w/w
Tazarotene (as % w/w) ([2]; 6 months, 25° C.): 0.091 % w/w
Tazarotene (as % w/w) ([2]; 6 months, 30° C.): 0.088 % w/w
Tazarotene (as % w/w) ([2]; 6 months, 40° C.): None Detected
Tazarotene (as % w/w) ([2]; 90 days, 6° C.): 0.102 % w/w
Tazarotene (as % w/w) ([2]; 90 days, 25° C.): 0.090 % w/w
Tazarotene (as % w/w) ([2]; 90 days, 30° C.): 0.089 % w/w
Tazarotene (as % w/w) ([2]; 90 days, 40° C.): 0.081 % w/w
Tazarotene (as % w/w) ([3]; 6 months, 6° C.): 0.104 % w/w
Tazarotene (as % w/w) ([3]; 6 months, 25° C.): 0.089 % w/w
Tazarotene (as % w/w) ([3]; 6 months, 30° C.): 0.089 % w/w
Tazarotene (as % w/w) ([3]; 6 months, 40° C.): 0.003 % w/w
Tazarotene (as % w/w) ([3]; 90 days, 6° C.): 0.103 % w/w
Tazarotene (as % w/w) ([3]; 90 days, 25° C.): 0.092 % w/w
Tazarotene (as % w/w) ([3]; 90 days, 30° C.): 0.090 % w/w
Tazarotene (as % w/w) ([3]; 90 days, 40° C.): 0.071 % w/w
Tazarotene (as % w/w) ([4]; 6° C.): 0.099 % w/w
Tazarotene (as % w/w) ([4]; 25° C.): 0.097 % w/w
Tazarotene (as % w/w) ([4]; 30° C.): 0.079 % w/w
Tazarotene (as % w/w) ([4]; 40° C.): 0.057 % w/w
Tazarotene (as % w/w) ([5]; 2 weeks, first temperature column (head not given; 6° C. by analogy)): 0.097 % w/w
Tazarotene (as % w/w) ([5]; 2 weeks, fourth temperature column (head not given; 40° C. by analogy)): 0.081 % w/w
Tazarotene (as % w/w) ([5]; 2 weeks, second temperature column (head not given; 25° C. by analogy)): 0.089 % w/w
Tazarotene (as % w/w) ([5]; 2 weeks, third temperature column (head not given; 30° C. by analogy)): 0.086 % w/w
Tazarotene (as % w/w) ([5]; 6 months, first temperature column (head not given; 6° C. by analogy)): 0.098 % w/w
Tazarotene (as % w/w) ([5]; 6 months, fourth temperature column (head not given; 40° C. by analogy)): None Detected
Tazarotene (as % w/w) ([5]; 6 months, second temperature column (head not given; 25° C. by analogy)): 0.085 % w/w
Tazarotene (as % w/w) ([5]; 6 months, third temperature column (head not given; 30° C. by analogy)): 0.085 % w/w
Tazarotene (as % w/w) ([5]; 90 days, first temperature column (head not given; 6° C. by analogy)): 0.100 % w/w
Tazarotene (as % w/w) ([5]; 90 days, fourth temperature column (head not given; 40° C. by analogy)): 0.079 % w/w
Tazarotene (as % w/w) ([5]; 90 days, second temperature column (head not given; 25° C. by analogy)): 0.090 % w/w
Tazarotene (as % w/w) ([5]; 90 days, third temperature column (head not given; 30° C. by analogy)): 0.087 % w/w
Tazarotene (as % w/w) ([6]; 6 months, 6° C.): 0.106 % w/w
Tazarotene (as % w/w) ([6]; 6 months, 25° C.): 0.088 % w/w
Tazarotene (as % w/w) ([6]; 6 months, 30° C.): 0.083 % w/w
Tazarotene (as % w/w) ([6]; 6 months, 40° C.): 0.004 % w/w
Tazarotene (as % w/w) ([6]; 90 days, 6° C.): 0.103 % w/w
Tazarotene (as % w/w) ([6]; 90 days, 25° C.): 0.093 % w/w
Tazarotene (as % w/w) ([6]; 90 days, 30° C.): 0.087 % w/w
Tazarotene (as % w/w) ([6]; 90 days, 40° C.): 0.051 % w/w
Tazarotene (as % w/w) ([7]; 6° C.): 0.101 % w/w
Tazarotene (as % w/w) ([7]; 25° C.): 0.102 % w/w
Tazarotene (as % w/w) ([7]; 30° C.): 0.104 % w/w
Tazarotene (as % w/w) ([7]; 40° C.): 0.103 % w/w
Tazarotene (as % w/w) ([8]; 60 days, 6° C.): 0.11 % w/w
Tazarotene (as % w/w) ([8]; 60 days, 25° C.): 0.109 % w/w
Tazarotene (as % w/w) ([8]; 60 days, 30° C.): 0.105 % w/w
Tazarotene (as % w/w) ([8]; 60 days, 40° C.): 0.107 % w/w
Tazarotene (as % w/w) ([8]; 90 days, 6° C.): 0.107 % w/w
Tazarotene (as % w/w) ([8]; 90 days, 25° C.): 0.111 % w/w
Tazarotene (as % w/w) ([8]; 90 days, 30° C.): 0.108 % w/w
Tazarotene (as % w/w) ([8]; 90 days, 40° C.): 0.116 % w/w
Tazarotene (as % w/w) ([9]; 2 weeks, 6° C.): 0.106 % w/w
Tazarotene (as % w/w) ([9]; 2 weeks, 25° C.): 0.098 % w/w
Tazarotene (as % w/w) ([9]; 2 weeks, 40° C.): 0.089 % w/w
Tazarotene (as % w/w) ([9]; 6 months, 6° C.): 0.107 % w/w
Tazarotene (as % w/w) ([9]; 6 months, 25° C.): 0.093 % w/w
Tazarotene (as % w/w) ([9]; 6 months, 40° C.): 0.014 % w/w
Tazarotene (as % w/w) ([9]; 30 days, 6° C.): 0.105 % w/w
Tazarotene (as % w/w) ([9]; 30 days, 25° C.): 0.094 % w/w
Tazarotene (as % w/w) ([9]; 30 days, 40° C.): 0.084 % w/w
Tazarotene (as % w/w) ([9]; 90 days, 6° C.): 0.106 % w/w
Tazarotene (as % w/w) ([9]; 90 days, 25° C.): 0.093 % w/w
Tazarotene (as % w/w) ([9]; 90 days, 40° C.): 0.086 % w/w
Tazarotene (as % w/w) ([10]; 2 weeks, 6° C.): 0.104 % w/w
Tazarotene (as % w/w) ([10]; 2 weeks, 25° C.): 0.098 % w/w
Tazarotene (as % w/w) ([10]; 2 weeks, 30° C.): 0.088 % w/w
Tazarotene (as % w/w) ([10]; 2 weeks, 40° C.): 0.080 % w/w
Tazarotene (as % w/w) ([10]; 6 months, 6° C.): 0.106 % w/w
Tazarotene (as % w/w) ([10]; 6 months, 25° C.): 0.090 % w/w
Tazarotene (as % w/w) ([10]; 6 months, 30° C.): 0.082 % w/w
Tazarotene (as % w/w) ([10]; 6 months, 40° C.): 0.046 % w/w
Tazarotene (as % w/w) ([11]; 4 weeks, 25° C.): 0.208 % w/w
Tazarotene (as % w/w) ([11]; 4 weeks, 30° C.): 0.208 % w/w
Tazarotene (as % w/w) ([11]; 4 weeks, 40° C.): 0.205 % w/w
Tazarotene (as % w/w) ([11]; 6 months, 25° C.): 0.206 % w/w
Tazarotene (as % w/w) ([11]; 6 months, 30° C.): 0.206 % w/w
Tazarotene (as % w/w) ([11]; 6 months, 40° C.): 0.205 % w/w
Tazarotene (as % w/w) ([11]; 90 days, 25° C.): 0.204 % w/w
Tazarotene (as % w/w) ([11]; 90 days, 30° C.): 0.208 % w/w
Tazarotene (as % w/w) ([11]; 90 days, 40° C.): 0.208 % w/w
Tazarotene (as % w/w) ([12]; 2 weeks, 25° C.): 0.088 % w/w
Tazarotene (as % w/w) ([12]; 2 weeks, 30° C.): 0.085 % w/w
Tazarotene (as % w/w) ([12]; 2 weeks, 40° C.): 0.081 % w/w
Tazarotene (as % w/w) ([12]; 90 days, 6° C.): 0.094 % w/w
Tazarotene (as % w/w) ([12]; 90 days, 25° C.): 0.090 % w/w
Tazarotene (as % w/w) ([12]; 90 days, 30° C.): 0.085 % w/w
Tazarotene (as % w/w) ([12]; 90 days, 40° C.): 0.078 % w/w
SMILES: CCOC(=O)c1ccc(C#Cc2ccc3c(c2)C(C)(C)CCS3)nc1 [Tazarotene]

From US20070003585A1, “Topical skin treating compositions” (STIEFEL LABORATORIES, INC., priority 2005, published 2007)
